This passage reports Selectivity and Ki results from ChEMBL document CHEMBL1142746, “Triaryl bis-sulfones as cannabinoid-2 receptor ligands: SAR studies” (Bioorg Med Chem Lett, 2005).

Assay [1] concerns the target Cannabinoid receptor (Homo sapiens) (UniProt P34972+P21554). Kind of assay: Ratio of inhibition against Cannabinoid receptor 1 and Cannabinoid receptor 2. The class given is protein assay.
For a further assay, the target named is Cannabinoid receptor 2 (Homo sapiens, UniProt P34972). Kind of assay: Inhibition constant against Cannabinoid receptor 2.
Sequence of Cannabinoid receptor 2 (P34972 whole entry): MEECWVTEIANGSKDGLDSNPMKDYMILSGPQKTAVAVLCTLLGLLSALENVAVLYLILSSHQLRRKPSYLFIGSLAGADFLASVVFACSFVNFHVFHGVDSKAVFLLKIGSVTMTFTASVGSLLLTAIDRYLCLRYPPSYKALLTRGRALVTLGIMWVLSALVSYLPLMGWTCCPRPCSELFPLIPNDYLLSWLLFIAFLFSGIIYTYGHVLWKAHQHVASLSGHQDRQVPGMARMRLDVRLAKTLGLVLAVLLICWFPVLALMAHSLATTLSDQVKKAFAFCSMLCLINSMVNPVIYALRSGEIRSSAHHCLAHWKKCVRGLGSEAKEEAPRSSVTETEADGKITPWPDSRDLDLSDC

Each structure is given as a SMILES string.

Sequence of Cannabinoid receptor (Homo sapiens) (P21554 whole entry, looked up): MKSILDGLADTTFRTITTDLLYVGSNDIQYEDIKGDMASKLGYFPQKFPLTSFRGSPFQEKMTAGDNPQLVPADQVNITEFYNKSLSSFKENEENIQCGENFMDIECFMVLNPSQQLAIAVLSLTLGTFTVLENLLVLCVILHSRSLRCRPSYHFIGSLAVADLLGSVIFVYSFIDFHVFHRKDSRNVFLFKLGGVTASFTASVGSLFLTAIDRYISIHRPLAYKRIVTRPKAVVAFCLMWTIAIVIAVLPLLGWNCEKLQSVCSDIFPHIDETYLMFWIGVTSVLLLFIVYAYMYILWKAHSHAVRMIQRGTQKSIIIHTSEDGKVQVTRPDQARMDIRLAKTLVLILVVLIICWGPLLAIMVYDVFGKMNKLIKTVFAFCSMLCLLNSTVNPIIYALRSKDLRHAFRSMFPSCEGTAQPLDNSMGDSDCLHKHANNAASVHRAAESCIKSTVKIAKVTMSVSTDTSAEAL
Sequence of Cannabinoid receptor (Homo sapiens) (P34972 whole entry, looked up): as the sequence (P34972 whole entry) above

For the molecule `C[C@H](NS(C)(=O)=O)c1ccc(S(=O)(=O)c2ccc(Cl)cc2S(=O)(=O)c2ccccc2)cc1`, the Selectivity in assay [1] came to 1940. In addition, the affinity on Cannabinoid receptor 2, expressed as Ki, was 2 nM.

For the molecule `C=C(c1ccc([C@H](C)NS(C)(=O)=O)cc1)c1ccc(OC(F)(F)F)cc1S(=O)(=O)c1ccccc1F`, in assay [1], the Selectivity was found to be 19. For the same molecule, the Ki on Cannabinoid receptor 2 was 86 nM.

Regarding `C[C@H](NS(C)(=O)=O)c1ccc(S(=O)(=O)c2ccc(Cl)cc2Cc2ccc(Cl)cc2)cc1`, in assay [1], the Selectivity came to 11. At Cannabinoid receptor 2, this molecule came in with a Ki of 164 nM.

Turning to `COc1ccc(S(=O)(=O)c2cc(OC)ccc2S(=O)(=O)c2ccc(C(C)(C)NS(C)(=O)=O)cc2)cc1`, the Selectivity in assay [1] is 282. On Cannabinoid receptor 2, this molecule returned a Ki of 6 nM.

In the case of `C[C@H](NS(C)(=O)=O)c1ccc(S(=O)(=O)c2ccc(Cl)cc2S(=O)(=O)c2ccccc2F)cc1`, in assay [1], the Selectivity turned out to be 4390. For the same molecule, the Ki on Cannabinoid receptor 2 was 1 nM.

As for `CC(NS(C)(=O)=O)c1ccc(C(=O)c2ccc(Cl)cc2S(=O)(=O)c2ccc(Cl)cc2)cc1` (stereo not given), the Selectivity in assay [1] came out at 16. Affinity on Cannabinoid receptor 2 was put at a Ki of 410 nM.

As for `C[C@H](NS(C)(=O)=O)c1ccc(Cc2ccc(OC(F)(F)F)cc2S(=O)(=O)c2cccc(C(F)(F)F)c2)cc1`, the Selectivity in assay [1] worked out at 27. At Cannabinoid receptor 2, this molecule returned an inhibition constant (Ki) of 35 nM.

In the case of `C[C@H](NS(C)(=O)=O)c1ccc(S(=O)(=O)c2ccc(Cl)cc2S(=O)(=O)c2cccc(Cl)c2)cc1`, in assay [1], the Selectivity amounted to 238. Also, affinity at Cannabinoid receptor 2 was put at a Ki of 23 nM.

With `C[C@H](NS(C)(=O)=O)c1ccc(Cc2ccc(Cl)cc2S(=O)(=O)c2ccc(Cl)cc2)cc1`, in assay [1], the Selectivity is 188. The molecule further showed a Ki on Cannabinoid receptor 2 of 6.7 nM.

With `C[C@H](NS(C)(=O)=O)c1ccc(S(=O)(=O)c2ccc(Cl)cc2Oc2ccc(Cl)cc2)cc1`, the Selectivity in assay [1] stood at 3. At Cannabinoid receptor 2, this molecule displayed a Ki of 983 nM.

`C[C@H](NS(C)(=O)=O)c1ccc(S(=O)(=O)c2ccc(Cl)cc2S(=O)(=O)c2ccccc2OC(F)(F)F)cc1`: in assay [1], the Selectivity amounted to 134. The molecule further returned a Ki at Cannabinoid receptor 2 of 128 nM.

As for `COc1ccc(S(=O)(=O)c2cc(OC)ccc2S(=O)(=O)c2ccc([C@@H](C)NS(C)(=O)=O)cc2)cc1`, the Selectivity in assay [1] is 105. Besides, the affinity at Cannabinoid receptor 2 corresponds to a Ki of 30 nM.

Regarding `C[C@H](NS(C)(=O)=O)c1ccc(S(=O)(=O)c2ccc(C(F)(F)F)cc2S(=O)(=O)c2ccc(Cl)cc2)cc1`, the Selectivity in assay [1] worked out at 558. In addition, the affinity at Cannabinoid receptor 2 corresponds to a Ki of 8 nM.

For the molecule `C[C@H](NS(C)(=O)=O)c1ccc(Cc2ccc(C(F)(F)F)cc2S(=O)(=O)c2cccc(F)c2)cc1`, the Selectivity in assay [1] turned out to be 438. For the same molecule, the Ki at Cannabinoid receptor 2 is 3.5 nM.

Turning to `C[C@H](NS(C)(=O)=O)c1ccc(S(=O)(=O)c2ccccc2S(=O)(=O)c2ccc(Cl)cc2)cc1`, the Selectivity in assay [1] is 127. In addition, the affinity on Cannabinoid receptor 2, expressed as Ki, was 58 nM.

Take `C[C@H](NS(C)(=O)=O)c1ccc(S(=O)(=O)c2ccc(Cl)cc2S(=O)(=O)c2ccccc2Cl)cc1`: the Selectivity in assay [1] came to 1780. The same molecule displayed a Ki on Cannabinoid receptor 2 of 6 nM.

As to `Cc1ccc(S(=O)(=O)c2ccc([C@H](C)NS(C)(=O)=O)cc2)c(S(=O)(=O)c2ccccc2F)c1`, the Selectivity in assay [1] was 1740. The same molecule showed a Ki at Cannabinoid receptor 2 of 0.5 nM.

Turning to `COc1ccc(S(=O)(=O)c2cc(OC)ccc2Cc2ccc([C@H](C)NS(C)(=O)=O)cc2)cc1`, the Selectivity in assay [1] is 1300. Also, at Cannabinoid receptor 2, the Ki stood at 0.6 nM.

`C[C@H](NS(C)(=O)=O)c1ccc(Cc2ccc(C(F)(F)F)cc2S(=O)(=O)c2ccccc2F)cc1`: in assay [1], the Selectivity turned out to be 674. Further, the Ki on Cannabinoid receptor 2 is 1 nM.

For the molecule `COc1ccc(S(=O)(=O)c2cc(OC)ccc2C(=O)c2ccc([C@H](C)NS(C)(=O)=O)cc2)cc1`, in assay [1], the Selectivity was found to be 108. Moreover, the affinity on Cannabinoid receptor 2, expressed as Ki, was 44 nM.

Consider `C[C@H](NS(C)(=O)=O)c1ccc(S(=O)(=O)c2ccc(O)cc2S(=O)(=O)c2ccc(Cl)cc2)cc1`, for which the Selectivity in assay [1] is 2320. Besides, on Cannabinoid receptor 2, affinity was put at a Ki of 13 nM.

For the molecule `C[C@H](NS(C)(=O)=O)c1ccc(Cc2ccc(OC(F)(F)F)cc2S(=O)(=O)c2ccccc2F)cc1`, in assay [1], the Selectivity worked out at 1180. On Cannabinoid receptor 2, the Ki is 0.4 nM.

Regarding `CC(NS(C)(=O)=O)c1ccc(C(=O)c2ccc(OC(F)(F)F)cc2S(=O)(=O)c2ccccc2F)cc1` (stereo not given), in assay [1], the Selectivity was 28. Further, the Ki on Cannabinoid receptor 2 was 179 nM.

For the molecule `C[C@H](NS(C)(=O)=O)c1ccc(S(=O)(=O)c2ccc(Cl)cc2C(C)(O)c2ccccc2F)cc1` (stereo not given in full), the Selectivity in assay [1] was determined as 111. For the same molecule, the Ki at Cannabinoid receptor 2 came to 77 nM.

With `C[C@H](NS(C)(=O)=O)c1ccc(S(=O)(=O)c2ccccc2S(=O)(=O)c2ccccc2F)cc1`, in assay [1], the Selectivity was determined as 1450. Moreover, affinity at Cannabinoid receptor 2 was put at a Ki of 9 nM.

In the case of `COc1ccc(S(=O)(=O)c2cc(OC)ccc2S(=O)(=O)c2ccc([C@H](C)NS(C)(=O)=O)cc2)cc1`, the Selectivity in assay [1] stood at 2260. The Ki on Cannabinoid receptor 2 was 0.4 nM.

As to `C[C@H](NS(C)(=O)=O)c1ccc(S(=O)(=O)c2ccc(Cl)cc2C(C)(O)c2ccc(Cl)cc2)cc1` (stereo not given in full), the Selectivity in assay [1] was determined as 25. Besides, the Ki at Cannabinoid receptor 2 is 230 nM.

Regarding `C[C@H](NS(C)(=O)=O)c1ccc(S(=O)(=O)c2ccc(OC3CCCC3)cc2S(=O)(=O)c2ccc(Cl)cc2)cc1`, the Selectivity in assay [1] was found to be 11. On Cannabinoid receptor 2, this molecule came in with a Ki of 232 nM.

As to `CO/N=C(\c1ccc([C@H](C)NS(C)(=O)=O)cc1)c1ccc(Cl)cc1S(=O)(=O)c1ccc(Cl)cc1`, in assay [1], the Selectivity came to 5. The molecule also showed a Ki at Cannabinoid receptor 2 of 406 nM.

As to `C[C@H](NS(C)(=O)=O)c1ccc(S(=O)(=O)c2ccc(Cl)cc2Nc2ccc(Cl)cc2)cc1`, the Selectivity in assay [1] worked out at 5. Further, the Ki on Cannabinoid receptor 2 worked out at 278 nM.

Turning to `C[C@H](NS(C)(=O)=O)c1ccc(S(=O)(=O)c2ccc(Cl)cc2S(=O)(=O)c2ccc(Cl)cc2)cc1`, the Selectivity in assay [1] amounted to 687. Moreover, the inhibitory constant (Ki) on Cannabinoid receptor 2 was 10 nM.

`C[C@H](NS(C)(=O)=O)c1ccc(S(=O)(=O)c2ccc(C(F)(F)F)cc2S(=O)(=O)c2ccccc2F)cc1`: the Selectivity in assay [1] amounted to 3550. This molecule came in with a Ki at Cannabinoid receptor 2 of 0.9 nM.

As to `COc1ccc(S(=O)(=O)c2ccc([C@H](C)NS(C)(=O)=O)cc2)c(S(=O)(=O)c2ccc(Cl)cc2)c1`, the Selectivity in assay [1] was 1150. The molecule also showed a Ki at Cannabinoid receptor 2 of 0.9 nM.

On to `COc1ccc(S(=O)(=O)c2cc(OC)ccc2S(=O)(=O)c2ccc(CNS(C)(=O)=O)cc2)cc1`, for which the Selectivity in assay [1] is 2170. This molecule gave a Ki at Cannabinoid receptor 2 of 1.3 nM.

Consider `C[C@H](NS(C)(=O)=O)c1ccc(S(=O)(=O)c2ccc(Cl)cc2C(=O)c2ccc(Cl)cc2)cc1`, for which the Selectivity in assay [1] was found to be 284. The molecule further showed a Ki at Cannabinoid receptor 2 of 192 nM.

Regarding `C=C(c1ccccc1F)c1cc(Cl)ccc1S(=O)(=O)c1ccc([C@H](C)NS(C)(=O)=O)cc1`, the Selectivity in assay [1] came to 17. Besides, the Ki at Cannabinoid receptor 2 was found to be 247 nM.

For `CCC(c1ccc([C@H](C)NS(C)(=O)=O)cc1)c1ccc(Cl)cc1S(=O)(=O)c1ccc(Cl)cc1` (stereo not given in full), the Selectivity in assay [1] was 48. At Cannabinoid receptor 2, this molecule showed a Ki of 76 nM.

In the case of `C[C@H](NS(C)(=O)=O)c1ccc(Cc2ccc(C(F)(F)F)cc2S(=O)(=O)c2c(F)cccc2F)cc1`, the Selectivity in assay [1] came to 584. The Ki at Cannabinoid receptor 2 stood at 1.8 nM.

Consider `COc1ccc(S(=O)(=O)c2ccc([C@H](C)NS(C)(=O)=O)cc2)c(S(=O)(=O)c2ccccc2)c1`, for which the Selectivity in assay [1] was determined as 2480. This molecule yielded a Ki on Cannabinoid receptor 2 of 0.6 nM.

Regarding `C[C@H](NS(C)(=O)=O)c1ccc(Cc2ccc(OC(F)(F)F)cc2S(=O)(=O)c2ccccc2OC(F)(F)F)cc1`, the Selectivity in assay [1] worked out at 60. The Ki at Cannabinoid receptor 2 amounted to 16 nM.

Broadly, the Ki is a dissociation constant, usually derived from enzyme kinetics or from competition with a known ligand. Read a low Ki as a stronger hold on the target.
